In brackets after ≈: the same amount, converted by molar mass. Residues, ends and D or L forms follow the SMILES beside them.
What was measured:
Format in all cases: cell-based
[1] = tested on: E. coli ATCC25922
Procedure: (§1) Minimum inhibitory concentrations (MICs) were determined as previously described. The bacteria used to determine the MIC were first cultured in Mueller-Hilton broth (MHB) (AoBoX, Beijing, China) overnight at 37 °C and transferred into a fresh and sterile MHB and grown to an OD600 of 0.4. The bacteria then adjusted to a cell density of 5×10^5 CFU mL^−1 in MHB. Peptides were serially diluted in 0.01% acetic acid and 0.2% bovine serum albumin (BSA) (Sigma-Aldrich, Shanghai, China) in a volume of 50 μL per well to achieve final concentration ranging from 1 to 128 μM in sterile 96-well plates. 50 μL of prepared bacterial suspension was added to each well. The mixtures were incubated at 37 °C for 18–24 h. The MICs were calculated as the lowest concentration of the peptide that prevented visible turbidity. The tests were performed in triplicate using three replicates for each experiment.

[2] = tested on: E. coli UB 1005
Procedure: as §1

[3] = tested on: P. aeruginosa ATCC27853
Procedure: as §1

[4] = tested on: S. aureus ATCC29213
Procedure: as §1

[5] = tested on: S. epidermidis ATCC12228
Procedure: as §1

[6] = tested on: S. faecalis ATCC29212
Procedure: as §1

[7] = tested on: S. pullorum C7913
Procedure: as §1

[8] = tested on: S. typhimurium ATCC14028
Procedure: as §1

[9] = tested on: S. typhimurium C7731
Procedure: as §1

[10] = tested on: Gram-positive and Gram-negative bacteria; experiment: MIC over all tested bacterial strains (range, geometric mean); settings: for GM, geometric mean of the MIC values: all tested strains, 256 μM used where no activity at 128 μM
Procedure: as §1
It is calculated as HC10/GM.

[11] = tested on: human erythrocytes; experiment: Hemolytic activity; settings: for HC10, concentration that induced 10% hemolysis of human red blood cells: probit regression in SPSS, unit not given (peptides tested at 0.5–256 µM)
Procedure: Hemolytic activities of the peptides were determined according to the method described previously. Fresh heparinized human whole blood from healthy donor (Yang Yang, Harbin, China) was centrifuged at 1000 g for 5 min at 4 °C. The obtained erythrocytes were washed three times and resuspended in PBS. Then, 50 μL of erythrocyte solution was incubated with 50 μL peptides at different concentrations at 37 °C for 1 h. Erythrocytes in either PBS or 0.1% Triton X-100 (Sigma-Aldrich, Shanghai, China) were used as negative and positive controls, respectively. After centrifugation at 1000 g for 5 min at 4 °C, the supernatant was transferred into a new 96-well plate and the extent of hemolysis was monitored using a multimode microplate reader (Infinite M200 Pro, Tecan, Switzerland) at 576 nm. The percentage of hemolysis was calculated according to the following formula:hemolysis (%) = [(A-A0)/(At-A0)]×100(2) where A is the absorbance of the peptide sample, A0 and At represent 0% and 100% hemolysis determined in 10 mM PBS and 0.1% Triton X-100, respectively. Results were expressed as average values from three independent experiments and each experiment was performed in triplicate.
For statistical evaluation, data were analyzed using the Statistical Product and Service Solutions software (SPSS Inc., Chicago, IL, USA) by one-way ANOVA and the values were presented as mean ± standard error (SE). HC10 values were calculated by using probit regression in SPSS 19.

[12] = tested on: E. coli ATCC 25922; settings: ATCC 25922, 2 h
Procedure: (§2) Minimum inhibitory concentrations (MICs) were determined as previously described. […] The bacteria then adjusted to a cell density of 5×10^5 CFU mL^−1 in MHB. […] The mixtures were incubated at 37 °C for 18–24 h. The MICs were calculated as the lowest concentration of the peptide that prevented visible turbidity. The tests were performed in triplicate using three replicates for each experiment. Serum stability was determined according to the method previously described. Human serum was added in the peptide solution with the volume ratio of 1:1 in which the final concentration of 50% v/v of serum was yielded. Serum-peptide mixtures with the final concentration of 25% and 12.5% v/v serum were also prepared. Subsequently, the mixture was incubated at 37 °C for 2h. The antimicrobial activities of serum-preincubated peptides were determined according the MIC assay described above.

[13] = tested on: S. aureus ATCC 29213; settings: ATCC 29213, 2 h
Procedure: as §2

Row | SMILES | MIC [1] [µM] | MIC [2] [µM] | MIC [3] [µM] | MIC [4] [µM] | MIC [5] [µM] | MIC [6] [µM] | MIC [7] [µM] | MIC [8] [µM] | MIC [9] [µM] | MICs range against all tested bacterial strains ([10]; all nine tested Gram-negative and Gram-positive strains) [µM] | GM, geometric mean of the MIC values [10] [µM] | hemolytic activity ([11]; 256 μM peptide, 37 °C, 1 h, absorbance 576 nm, average of three independent experiments) [%] | HC10, concentration that induced 10% hemolysis of human red blood cells ([11]; 37 °C, 1 h) | fold decrease of hemolysis compared to CA ([11]; at 256 μM) | MIC after incubating with human serum [12] [µM] | MIC after incubating with human serum [13] [µM]
1 | CC[C@H](C)[C@H](NC(=O)[C@H](CCCCN)NC(=O)[C@H](CCCCN)NC(=O)[C@H](Cc1ccccc1)NC(=O)[C@H](CC(C)C)NC(=O)[C@H](CCCCN)NC(=O)[C@H](Cc1c[nH]c2ccccc12)NC(=O)[C@@H](N)CCCCN)C(=O)N[C@@H](CCCNC(=N)N)C(=O)N[C@@H](Cc1ccccc1)C(=O)NCC(=O)N[C@@H](CCCNC(=N)N)C(=O)N[C@@H](Cc1ccccc1)C(=O)N[C@@H](CC(C)C)C(=O)N[C@@H](CCCNC(=N)N)C(=O)N[C@@H](CCCCN)C(=O)N[C@H](C(=O)N[C@@H](CCCNC(=N)N)C(=O)N[C@@H](CCCNC(=N)N)C(=O)N[C@@H](Cc1ccccc1)C(=O)N[C@@H](CCCNC(=N)N)C(=O)N1CCC[C@H]1C(=O)N[C@@H](CCCCN)C(N)=O)[C@@H](C)CC [CA-FO] (H-KWKLFKKIRFGRFLRKIRRFRPK-NH2) | 2 (≈ 6.21 µg/mL) | 2 (≈ 6.21 µg/mL) | 4 (≈ 12.4 µg/mL) | 2 (≈ 6.21 µg/mL) | 4 (≈ 12.4 µg/mL) | 4 (≈ 12.4 µg/mL) | 8 (≈ 24.8 µg/mL) | 4 (≈ 12.4 µg/mL) | 4 (≈ 12.4 µg/mL) | 2 to 8 | 3.43 | 13.83 | 143.34 | approximately 5 fold | 4 | 4
2 | CC[C@H](C)[C@H](NC(=O)[C@H](CCCCN)NC(=O)[C@H](CCCCN)NC(=O)[C@H](Cc1ccccc1)NC(=O)[C@H](CC(C)C)NC(=O)[C@H](CCCCN)NC(=O)[C@H](Cc1c[nH]c2ccccc12)NC(=O)[C@@H](N)CCCCN)C(=O)N[C@@H](Cc1c[nH]c2ccccc12)C(=O)N[C@@H](Cc1c[nH]c2ccccc12)C(=O)N1CCC[C@H]1C(=O)N[C@@H](Cc1ccccc1)C(=O)N[C@@H](CC(C)C)C(=O)N[C@@H](CCCNC(=N)N)C(=O)N[C@@H](CCCNC(=N)N)C(N)=O [CA-TP] (H-KWKLFKKIWWPFLRR-NH2) | 2 (≈ 4.26 µg/mL) | 4 (≈ 8.53 µg/mL) | 4 (≈ 8.53 µg/mL) | 2 (≈ 4.26 µg/mL) | 2 (≈ 4.26 µg/mL) | 2 (≈ 4.26 µg/mL) | 4 (≈ 8.53 µg/mL) | 4 (≈ 8.53 µg/mL) | 2 (≈ 4.26 µg/mL) | – | 2.72 | – | 49.66 | – | 4 | 4
3 | CC[C@H](C)[C@H](NC(=O)[C@H](CCCCN)NC(=O)[C@H](CCCCN)NC(=O)[C@H](Cc1ccccc1)NC(=O)[C@H](CC(C)C)NC(=O)[C@H](CCCCN)NC(=O)[C@H](Cc1c[nH]c2ccccc12)NC(=O)[C@@H](N)CCCCN)C(N)=O [CA] (H-KWKLFKKI-NH2) | 64 (≈ 69.7 µg/mL) | >128 | >128 | 128 (≈ 139 µg/mL) | >128 | >128 | >128 | >128 | >128 | – | 203.19 | – | 15.54 | – | – | –
4 | CC[C@H](C)[C@H](NC(=O)[C@H](CCCCN)NC(=O)[C@H](CCCNC(=N)N)NC(=O)[C@H](CC(C)C)NC(=O)[C@H](Cc1ccccc1)NC(=O)[C@H](CCCNC(=N)N)NC(=O)CNC(=O)[C@H](Cc1ccccc1)NC(=O)[C@@H](N)CCCNC(=N)N)C(=O)N[C@@H](CCCNC(=N)N)C(=O)N[C@@H](CCCNC(=N)N)C(=O)N[C@@H](Cc1ccccc1)C(=O)N[C@@H](CCCNC(=N)N)C(=O)N1CCC[C@H]1C(=O)N[C@@H](CCCCN)C(N)=O [FO] (H-RFGRFLRKIRRFRPK-NH2) | 32 (≈ 65 µg/mL) | 16 (≈ 32.5 µg/mL) | 32 (≈ 65 µg/mL) | 64 (≈ 130 µg/mL) | 16 (≈ 32.5 µg/mL) | 16 (≈ 32.5 µg/mL) | 16 (≈ 32.5 µg/mL) | 32 (≈ 65 µg/mL) | 32 (≈ 65 µg/mL) | – | 25.40 | – | 2.78 | – | – | –
5 | CC(C)C[C@H](NC(=O)[C@H](Cc1ccccc1)NC(=O)[C@@H]1CCCN1C(=O)[C@H](Cc1c[nH]c2ccccc12)NC(=O)[C@@H](N)Cc1c[nH]c2ccccc12)C(=O)N[C@@H](CCCNC(=N)N)C(=O)N[C@@H](CCCNC(=N)N)C(N)=O [TP] (H-WWPFLRR-NH2) | 128 (≈ 136 µg/mL) | 128 (≈ 136 µg/mL) | 64 (≈ 67.8 µg/mL) | 64 (≈ 67.8 µg/mL) | 32 (≈ 33.9 µg/mL) | >128 | 64 (≈ 67.8 µg/mL) | 32 (≈ 33.9 µg/mL) | 64 (≈ 67.8 µg/mL) | – | 74.66 | – | 25.06 | – | – | –

Source: article PMC7073140, “Hybridization with Insect Cecropin A (1–8) Improve the Stability and Selectivity of Naturally Occurring Peptides” (International Journal of Molecular Sciences, 2020)
